test: in vitro; conditions: human, hela cells, % viability

Row | SMILES | viability at 28.5 h, 10 µM [%]
1 | CS(=O)(=O)c1ccc(-c2ccc(C(=O)N3CCN(C(=O)OCc4ccccc4)CC3)cn2)cc1 [CBK160189] | 107
2 | CS(=O)(=O)c1ccc(-c2ccc(C(=O)N3CCN(C(=O)c4ccco4)CC3)cn2)cc1 [CBK160190] | 95.2
3 | Nc1ncc(-c2ccc(C(=O)N3CCOCC3)cc2)cc1C(=O)Nc1ccc(C(F)(F)F)cc1 [CBK160204] | 90.6
4 | COc1cccc(NC(=O)c2cncc(-c3ccc(C(=O)N4CCOCC4)cc3)c2)c1 [CBK160213] | 96.2
5 | NC(=O)c1ccc(NC(=O)c2cncc(-c3ccc(C(=O)N4CCOCC4)cc3)c2)cc1 [CBK160214] | 106
6 | O=C(Nc1ccc(F)c(C(F)(F)F)c1)c1cncc(-c2ccc(C(=O)N3CCOCC3)cc2)c1 [CBK160216] | 88.2
7 | CCOC(=O)N1CCC(NC(=O)c2cnn3c(C)c(Cc4ccccc4)c(C)nc23)CC1 [CBK160293] | 90.7
8 | CCOC(=O)C1CCN(C(=O)c2cnn3c(C)c(Cc4cccc(Cl)c4)c(C)nc23)CC1 [CBK160305] | 92.5
9 | Cc1onc(-c2ccccc2Cl)c1C(=O)N(C)C [CBK160325] | 102
10 | CN1CCC(N2CCN(C(=O)c3cncc(-c4[nH]nnc4-c4ccccc4)c3)CC2)CC1 [CBK160327] | 98.3
11 | O=S(=O)(Nc1cccc(-c2nnn[nH]2)c1)c1cc(Br)c(Cl)s1 [CBK160374] | 102
12 | CC(=O)c1c(C)oc2ccc(O)c(CN3CCOCC3)c12 [CBK160396] | 104
13 | Oc1c(Br)cc2oc3c(c2c1CNc1ccccc1)CCCC3 [CBK160397] | 103
14 | CC(C)NCc1c(O)c(Br)cc2oc3c(c12)CCCC3 [CBK160400] | 96.5
15 | CCc1onc(-c2ccccc2)c1C(=O)NCCO [CBK160434] | 89.8
16 | Cc1onc(-c2c(Cl)cccc2Cl)c1C(=O)N(C)C [CBK160437] | 97
17 | CS(=O)(=O)c1ccc(-c2ccc(C(=O)N3CCN(Cc4ccc(F)c(F)c4)CC3)nc2)cc1 [CBK160485] | 87.4
18 | CCN(CC)CCN(CCc1ccc(OC)c(OC)c1)C(=O)Nc1ccc(Cl)cc1 [CBK160510] | 96.6
19 | O=C(C(Cc1ccccc1)c1ccccc1)N1CCC2(CCN(CCCCOc3ccccc3)C2)C1 (stereo not drawn) [CBK160643] | 101
20 | CC(=O)NCc1cccc(-c2cc(C(=O)Nc3ccc4c(c3)OCCO4)cnc2-c2cccnc2)c1 [CBK160658] | 88.6
21 | O=C(COc1ccccc1)N1CCC(Oc2nccnc2OCc2ccc(Cl)c(Cl)c2)CC1 [CBK160718] | 99

Row | SMILES | viability at 28.5 h, 10 µM [%]
22 | O=C(c1ccc(F)cc1)N1CCC(Oc2nccnc2OCc2ccc(Cl)c(Cl)c2)CC1 [CBK160721] | 85.9
23 | COc1cc2nc(N3CCC4(CCN(C(=O)C(c5ccccc5)C(C)C)C4)C3)nc(N)c2cc1OC (stereo not drawn) [CBK160790] | 76.3
24 | Cc1cc(C(=O)N2CCN(C(=O)c3cn(Cc4ccc(S(C)(=O)=O)cc4)nn3)CC2)n(C)n1 [CBK160824T] | 110
25 | CCCOc1ccc(OC(=O)COc2ccccc2)cc1 [CBK160853] | 93.3
26 | CCCC[C@H]1CC[C@H](C(=O)Oc2ccc(OC(C)C(=O)O)cc2)CC1 (stereo partly drawn) [CBK160854] | 93.8
27 | CN(C)C(=O)N1CCN(C(=O)c2cn(Cc3cccc(S(C)(=O)=O)c3)nn2)CC1 [CBK160969T] | 89.7
28 | O=C(Cc1csc(-c2ccc(Cl)cc2)n1)NCC1CCCN1 (stereo not drawn) [CBK160982] | 106
29 | COC(=O)CCC(=O)N1CCCC2(CCN(C(=O)c3ccoc3)C2)C1 (stereo not drawn) [CBK160988] | 100
30 | CCOC(=O)C1(C2CCCCC2)CCN(C(=O)CN2C(=O)CSC2=O)CC1 [CBK160993] | 97.1
31 | CC(C)OC(=O)N1CCN(C(=O)c2cn(Cc3cccc(S(C)(=O)=O)c3)nn2)CC1 [CBK160994T] | 88.5
32 | O=C(NCCc1c[nH]cn1)c1ccccc1-n1cccc1 [CBK161000] | 92.4
33 | O=C(NCc1c(F)cccc1F)c1ccc(-c2ccc(OC(F)(F)F)cc2)nc1 [CBK161007T] | 97.6
34 | CC(=O)NCc1cccc(-c2cncc(C(=O)Nc3ccc4c(c3)OCCO4)c2)c1 [CBK161009T] | 82.1
35 | CCc1ccc(CNC(=O)Cn2nnc(-c3ccc(CNC4CCOCC4)cc3)n2)cc1 [CBK161029C] | 89.8
36 | CCSCCN1CCC(Oc2nccnc2OCc2ccc(Br)cc2F)CC1 [CBK161087] | 98.7
37 | NC(=O)c1cccc(CN2CCOC3(CCN(C(=O)OCc4ccccc4)CC3)C2)c1 [CBK161100T] | 90.4
38 | COc1cc(OC)nc(CN2CCOC3(CCN(C(=O)OCc4ccccc4)CC3)C2)n1 [CBK161101T] | 96.2
39 | N#Cc1ccc(CN2CCOC3(CCN(C(=O)OCc4ccccc4)CC3)C2)cc1 [CBK161103T] | 99.1
40 | O=C(OCc1ccccc1)N1CCC2(CC1)CN(c1ccc(C(F)(F)F)cn1)CCO2 [CBK161116T] | 95.8
41 | COc1ccc([N+](=O)[O-])c(N2CCOC3(CCN(C(=O)OCc4ccccc4)CC3)C2)n1 [CBK161117T] | 103
42 | O=C(c1ccc2ccccc2c1)N1CCC2(CC1)CN(Cc1ccccc1)CCO2 [CBK161118A] | 94.1

Row | SMILES | viability at 28.5 h, 10 µM [%]
43 | CS(=O)(=O)c1ccc(CN2CCOC3(CCN(C(=O)c4ccc5ccccc5c4)CC3)C2)cc1 [CBK161122A] | 104
44 | Cc1cc(N2CCOC3(CCN(C(=O)c4ccc5ccccc5c4)CC3)C2)nc(N)n1 [CBK161125A] | 93.2
45 | Fc1cc(Br)ccc1COc1cccnc1Cl [CBK161281] | 68.4
46 | O=C(O)C1CCCN(C(=O)NCC2COc3ccccc3O2)C1 (stereo not drawn) [CBK161342] | 121
47 | CSCCCNC(=O)N1CCCC(C(=O)O)C1 (stereo not drawn) [CBK161343] | 92.1
48 | O=C(O)C1CCCN(C(=O)NCc2cccc(C(F)(F)F)c2)C1 (stereo not drawn) [CBK161345] | 94.5
49 | COc1ccc2[nH]cc(CCNC(=O)N3CCCC(C(=O)O)C3)c2c1 (stereo not drawn) [CBK161351] | 108
50 | N#Cc1ccc(CNC(=O)N2CCCC(C(=O)O)C2)cc1 (stereo not drawn) [CBK161352] | 89.5
51 | COc1ccc(CCNC(=O)N2CCCC(C(=O)O)C2)cc1OC (stereo not drawn) [CBK161354] | 100
52 | O=C(O)C1CCCN(C(=O)NCc2c(Cl)cccc2Cl)C1 (stereo not drawn) [CBK161362] | 90
53 | O=C(O)C1CCCN1C(=O)NCc1c(Cl)cccc1Cl (stereo not drawn) [CBK161383] | 88.1
54 | COc1cc(CNC(=O)N2CCC(C(=O)O)CC2)cc(OC)c1OC [CBK161401] | 81.5
55 | COc1ccc(CCNC(=O)N2CCC(C(=O)O)CC2)cc1OC [CBK161404] | 110
56 | O=C(O)C1CCN(C(=O)Nc2ccccc2Cl)CC1 [CBK161407] | 106
57 | CCc1ccc(OCC(O)Cn2nnc(-c3ccc(CN4CCC(C)CC4)cc3)n2)cc1 (stereo not drawn) [CBK161437T] | 111
58 | CC(=O)NCc1cccc(-c2cc(CO)cnc2-c2ccc(Cl)cc2)c1 [CBK161445] | 94.6
59 | CCN(NC(=O)c1cc2cccc(OC)c2o1)c1ccc(C)cc1 [CBK161484] | 106
60 | CCOC(=O)CCNC(=O)C1(c2ccc(OC)cc2)CC1 [CBK161490] | 87.3
61 | CCN(NC(=O)c1ccccc1-n1cccc1)c1ccc(C)cc1 [CBK161507] | 110
62 | CC(C)c1ccc(/C=C/C(=O)NCc2ccc(NS(C)(=O)=O)cc2)cc1 [CBK161512] | 97.8
63 | CS(=O)(=O)c1ccc(CNC(=O)C2(c3ccccc3)CCCC2)cc1 [CBK161524] | 96.3

Row | SMILES | viability at 28.5 h, 10 µM [%]
64 | CS(=O)(=O)Nc1ccc(CNC(=O)C2(c3ccccc3)CCCC2)cc1 [CBK161525] | 101
65 | O=C(c1ccccc1)c1ccc(CNC(=O)C2(c3ccccc3)CCCC2)cc1 [CBK161526] | 87.6
66 | N#CCCCN1CCC(Oc2nccnc2OCc2ccc(-c3ccccc3)cc2)CC1 [CBK161566] | 95.4
67 | N#CCCCN1CCC(Oc2nccnc2OCc2cccc(OCc3ccccc3)c2)CC1 [CBK161572] | 97.5
68 | Cc1cc(C)c(COc2nccnc2OC2CCN(CCCC#N)CC2)c(C)c1 [CBK161575] | 91.6
69 | CC(=O)NCCOc1nccnc1OCc1ccc(Cl)c(Cl)c1 [CBK161582] | 96.4
70 | CCCCOc1ccc(Oc2ncc(C(F)(F)F)cc2Cl)cc1 [CBK161629] | 94.4
71 | N#CCCc1ccc(Oc2ncc(C(F)(F)F)cc2Cl)cc1 [CBK161635] | 106
72 | OCCc1ccc(Oc2ncc(C(F)(F)F)cc2Cl)cc1 [CBK161643] | 94.6
73 | CN(C(=O)c1cccs1)c1ccc(Oc2ncc(C(F)(F)F)cc2Cl)cc1 [CBK161654] | 89.6
74 | O=C(C(CO)c1ccccc1)N1CCC2(CCN(CCCCOc3ccccc3)C2)C1 (stereo not drawn) [CBK161722] | 90
75 | CC(=O)NCc1cccc(-c2cc(OCC3COc4ccccc4O3)cnc2C)c1 (stereo not drawn) [CBK161723A] | 112
76 | O=C(Nc1cccc(Oc2ccccc2)c1)c1ccc2[nH]ccc2c1 [CBK161728] | 97.5
77 | CS(=O)(=O)Nc1ccc(CNC(=O)c2ccc3[nH]ccc3c2)cc1 [CBK161747] | 93.5
78 | O=C(Cc1cc(F)c(F)c(F)c1)Nc1cnccn1 [CBK161764] | 90.1
79 | CS(=O)(=O)c1ccc(Cn2ccnc(OC3CCN(C(=O)c4ccc(C#N)cc4)CC3)c2=O)cc1 [CBK161804] | 92.4
80 | CS(=O)(=O)c1ccc(Cn2ccnc(OC3CCN(C(=O)c4cccc(C#N)c4)CC3)c2=O)cc1 [CBK161810] | 105
81 | Cc1cc(C(=O)N2CCC(Oc3nccn(Cc4ccc(S(C)(=O)=O)cc4)c3=O)CC2)ccc1Cl [CBK161883] | 92.6
82 | COC1CCC(C(=O)N2CCC(COc3ccc(-c4ccc(S(C)(=O)=O)cc4)cn3)CC2)CC1 (stereo not drawn) [CBK161995] | 80.3
83 | COc1cccc(Cc2c(C)nc3c(C(=O)NCCCN4CCCC4=O)cnn3c2C)c1 [CBK162055] | 111
84 | COc1cccc(Cc2c(C)nc3c(C(=O)NCC4COc5ccccc5O4)cnn3c2C)c1 (stereo not drawn) [CBK162064] | 111

— PMC12040169 (PLOS Biology, 2025)
